Experiment: Henry solubility constant Hcp at 298.15 K (mol/(m3 Pa))
Conditions: reference: Rex (1906)

| SMILES | Henry solubility constant Hcp |
| --- | --- |
| ClC(Cl)(Cl)Cl [tetrachloromethane] | 0.00035 |
| CCI [iodoethane] | 0.0015 |
| CC(C)I [2-iodopropane] | 0.00085 |
| S=C=S [carbon disulfide] | 0.00054 |
| CCBr [bromoethane] | 0.0013 |
| BrCBr [dibromomethane] | 0.011 |
| CC(C)Br [2-bromopropane] | 0.0009 |
| CCCI [1-iodopropane] | 0.001 |
| ClCCl [dichloromethane] | 0.0041 |
| CI [iodomethane] | 0.0019 |
| CCCBr [1-bromopropane] | 0.0011 |
| CC(C)Cl [2-chloropropane] | 0.00056 |

Source: Sander's compilation of Henry's law constants (doi:10.1515/zpch-1906-5519)
